Where “and” joins values, the source holds several entries; their conditions need not be identical. Equal values may be shown once. Entries after “also recorded” stand apart in the source; their conditions may differ. Read-outs that look alike come from different tables or passages of the source.
Legend:
uninfected cells = assay: Cytotoxicity in uninfected cells, Sigma TOX7 LDH release; assay type: cell-based; conditions: any concentration
Experimental: For each assay, percent inhibition was calculated by comparing luciferase activity in cells treated with compound to that in cells treated with vehicle (DMSO) control. Cells were treated with 2.5 μM remdesivir as a control where indicated. Cytotoxicity was measured in uninfected cells in parallel assays using the Sigma TOX7 assay for LDH release.

[1] = test system: SARS-CoV-2 (USA-WA1/2020); assay: Neutral red CPE assay in Vero E6 cells; assay type: cell-based; conditions: for EC50: Severe acute respiratory syndrome coronavirus 2, Vero C1008, 72 h, read-out: EC50: 50% effective antiviral concentration
[2] = test system: SARS-CoV-2 (USA-WA1/2020); assay: microbe, parasite or virus in culture; assay type: cell-based; conditions: Severe acute respiratory syndrome coronavirus 2, Caco-2, 72 h, read-out: EC90: Calculated concentration to reduce virus yield by 1 log (90%) (converted)
WIV1 = assay: microbe, parasite or virus in culture; assay type: cell-based, bat-derived SARS-like coronavirus; conditions: HAE cells
Oral GLP toxicology = conditions: rats/dogs
[3] = test system: Murine hepatitis virus (MHV) strain MHV-A59 (nLuc reporter); assay: microbe, parasite or virus in culture; assay type: cell-based; conditions: Murine coronavirus
[4] = Cytotoxicity, neutral red, Caco2 cells; assay type: cell-based; conditions: human, read-out: CC50: 50% cytotoxic concentration of compound without virus added
Experimental: Virus yield reduction assay in Caco-2 cells: The virus yield reduction (VYR) assay set up was similar to that described for the neutral red assay excepting Caco2 cells were used. On day 3 post-infection, cell culture supernatant from wells was collected and infectious virus determined by running a standard endpoint dilution CCID50 assay. Compound dilution that reduced virus yield by 1 log10 was calculated. After collection of cell culture supernatant from wells on day 3 post-infection, plates were stained as described in the neutral red assay to determine CC50 in Caco2 cells.

[5] = Genotoxicity / mitotoxicity
in vivo = conditions: female, BALB/c, mouse, 5 mg
SHC014 = assay: microbe, parasite or virus in culture; assay type: cell-based, bat-derived SARS-like coronavirus; conditions: HAE cells
[6] = Tolerability of single inhaled aerosol dose in healthy BALB/c mice; assay type: in vivo; conditions: 5 mg aerosol single dose; dosing period and 8-hour post-dose period
Experimental: Tolerability and pharmacokinetics (PK) of a single dose of Compound 1 delivered as aerosol via nebulized liquid in a flow-past pie-chamber model to healthy BALB/c mice. Compound 1 and Compound 60 concentrations were evaluated in plasma and lung tissue were determined.
Nine female, 9-11 week old BALB/c mice were housed in 9 individual wedges of the inhalation device described above. The input holes of the remaining 3 wedges were taped off to maximize delivery to the 9 mice. A liquid formulation of 5 mg/mL Compound 1 (pH 6.0) was prepared immediately prior to dosing and dispensed into the compressor chamber. The entire contents (9 mL) of the formulation solution were aerosolized and delivered to the 9 mice over a period of 20-30 min. This method delivered 5 mg Compound 1 to each wedge containing a single mouse over the period of nebulization.
Mice were monitored for adverse clinical signs with special attention given to signs related to eye irritation.

[7] = test system: SARS-CoV-2 strain USA-WA1 2020 (nLuc reporter); assay: microbe, parasite or virus in culture; assay type: cell-based
[8] = Cytotoxicity without virus, neutral red, Vero E6 cells; assay type: cell-based; conditions: African green monkey; Neutral Red in Vero E6 cells; read-out: CC50: 50% cytotoxic concentration of compound without virus added
Experimental: Neutral red assay in Vero E6 cells: Compound dilutions were added to 96-well plates containing 80-100% confluent Vero E6 cells. Cells were incubated with compound for 1-2 hours and then infected with virus at a low MOI to achieve >80% cytopathic effect (CPE) within 5 days of incubation. On day 3 post-infection, CPE was quantitated by neutral red staining. Briefly cells were stained with neutral red for 2 hours, dye removed, and wells rinsed with PBS. The incorporated dye was extracted in Sorensen citrate buffer/ethanol (50:50) and absorbance measured on a spectrophotometer at 540 nm. Compound dilution that reduced virus CPE by 50% (EC50) was calculated along with cytotoxicity in the absence of virus infection (CC50).

[9] = individual animals; for Plasma Compound 1 Concentration: 5 mg delivered dose, aerosol, single dose
[10] = Healthy volunteer Phase 1 study of oral Compound 1; conditions: healthy volunteers
SARS-CoV-2 [11] = assay: hACE2 transgenic mouse model of SARS-CoV-2 disease; assay type: in vivo, human ACE2 transgenic mouse; conditions: 50 mg/kg once per day intraperitoneal, Day 5
SARS-CoV-2 [12] = conditions: MRC5 cells; cited from earlier work
[13] = Severe acute respiratory syndrome-related coronavirus, HAE
[14] = Mean Plasma Compound 1 Concentration
[15] = Plasma Compound 1 Concentration
[16] = 5 mg Compound 1 aerosol, 1 hr post-dose
[17] = 5 mg Compound 1 aerosol, 3 hr post-dose

Cc1nc(N)c2c(C(N)=O)cn([C@@H]3O[C@H](CO)[C@@H](O)[C@H]3O)c2n1 [Compound 1, 4-amino-7-((2R,3R,4S,5R)-3,4-dihydroxy-5-(hydroxymethyl)tetrahydrofuran-2-yl)-2-methyl-7H-pyrrolo[2,3-d]pyrimidine-5-carboxamide]
Effect on cell viability (uninfected cells): No effect on cell viability was seen at any concentration
SI: Selectivity Index (CC50/EC50) ([1]; Neutral Red in Vero E6 cells): >1.8
EC50 [1]: 56000 nM
EC90 [2]: 2100 nM
EC50 (WIV1): 1010 nM
EC50 (WIV1; [13]): ~1000 nM
toxicology profile (Oral GLP toxicology): favorable toxicology profile
EC50 [3]: 380 nM
CC50 at 3 days [4]: > 100000 nM
genotoxicity / mitotoxicity [5]: not genotoxic or mitotoxic
Kp (in vivo): ~20
Kp at 8 h (in vivo): ~12
concentration at 1 h (in vivo; [14]): 41.8 ng/mL
concentration at 3 h (in vivo; [14]): 18 ng/mL
concentration at 8 h (in vivo; [14]): 13.3 ng/mL
concentration at 1 h (in vivo; [15]): 32.5 ng/mL
concentration at 3 h (in vivo; [15]): 18.5 ng/mL
concentration at 8 h (in vivo; [15]): 11.9 ng/mL
EC50 (SHC014): 980 nM
EC50 (SHC014; [13]): ~1000 nM
clinical signs of irritation or intolerability [6]: No clinical signs of irritation or intolerability
EC50 ([7]; HAE cells donor code yellow, 8 point dose-response curve, read-out: EC50): 940 nM
EC50 ([7]; Severe acute respiratory syndrome coronavirus 2, Epithelial cell, read-out: average EC50, SARS-CoV-2 replication): 900 nM
EC50 ([7]; Severe acute respiratory syndrome coronavirus 2, HAE, HAE cells donor code blue, 5 point dose-response curve, read-out: EC50): 550 nM
EC50 ([7]; Severe acute respiratory syndrome coronavirus 2, HAE, HAE cells donor code purple, 5 point dose-response curve, read-out: EC50): 380 nM
EC50 ([7]; Severe acute respiratory syndrome coronavirus 2, HAE, HAE cells donor code yellow, 4 point dose-response curve, read-out: EC50): 310 nM
EC50 ([7]; Severe acute respiratory syndrome coronavirus 2, HAE, HAE cells donor code yellow, 5 point dose-response curve, read-out: EC50): 160 nM
EC50 ([7]; Severe acute respiratory syndrome coronavirus 2, HAE, HAE cells donor code yellow, 7 point dose-response curve, read-out: EC50): 350 nM
EC50 ([7]; Severe acute respiratory syndrome coronavirus 2, HAE, HAE cells donor code yellow, 8 point dose-response curve, read-out: EC50): 1100 nM
EC50 ([7]; Severe acute respiratory syndrome coronavirus 2, HAE, mean of the HAE cell determinations, read-out: Mean SARS-CoV-2 EC50): 540 nM
EC50 ([7]; mean of the HAE cell determinations, read-out: Mean SARS-CoV-2 EC50): 540 nM
CC50 at 3 days [8]: > 100000 nM
Lung tissue Compound 1 concentration, Middle lobe [9, 16]: 1323 pmol/g and 988 pmol/g and 1061 pmol/g
Lung tissue Compound 1 concentration, PC lobe [9, 16]: 986 pmol/g and 673 pmol/g and 430 pmol/g
Lung tissue Compound 1 concentration, Superior lobe [9, 16]: 1867 pmol/g and 1219 pmol/g and 1212 pmol/g
Lung tissue Compound 1 concentration, Inferior lobe [9, 17]: 209 pmol/g and 93 pmol/g and 110 pmol/g
Lung tissue Compound 1 concentration, Left lobe [9, 17]: 106 pmol/g and 116 pmol/g and 140 pmol/g
Lung tissue Compound 1 concentration, Superior lobe [9, 17]: 398 pmol/g and 167 pmol/g and 305 pmol/g
Lung tissue Compound 1 concentration, Middle lobe ([9]; 5 mg Compound 1 aerosol, 8 hr post-dose): 73 pmol/g and 137 pmol/g and 99 pmol/g
Plasma Compound 1 Concentration ([9]; 1 hr post-dose): 39.1 ng/mL and 53.7 ng/mL
Plasma Compound 1 Concentration ([9]; 3 hr post-dose): 20.8 ng/mL and 14.8 ng/mL
Plasma Compound 1 Concentration ([9]; 8 hr post-dose): 15.4 ng/mL and 12.6 ng/mL
generally well-tolerated dose [10]: up to 2400 mg
average Cq, virus genome in lungs (qPCR) (SARS-CoV-2 [11]; started 4-6 h after challenge, vehicle Cq 23): 22
effect on virus genome levels in lungs / efficacy (SARS-CoV-2 [11]): did not alter the virus genome levels detected in lungs; also recorded: not effective at inhibiting SARS-CoV-2
Cq of one male mouse with lower than expected virus genome loads (SARS-CoV-2 [11]; likely failure of challenge or RNA recovery): 38

CNc1nc(N)nc2c1ncn2[C@@H]1O[C@H](COP(=O)(N[C@@H](C)C(=O)OC(C)C)Oc2ccccc2)[C@@H](O)[C@@]1(C)F.CNc1nc(N)nc2c1ncn2[C@@H]1O[C@H](COP(=O)(N[C@@H](C)C(=O)OC(C)C)Oc2ccccc2)[C@@H](O)[C@@]1(C)F.O=S(=O)(O)O (stereo partly shown) [AT-527]
antiviral activity against SARS-CoV-2 (SARS-CoV-2 [12]): lack of antiviral activity against SARS-CoV-2

NC(=O)c1cn([C@@H]2O[C@H](CO)[C@@H](O)[C@H]2O)c2ncnc(N)c12 [Sangivamycin, reference compound]
SI: Selectivity Index (CC50/EC50) ([1]; Neutral Red in Vero E6 cells): 1.9
EC50 ([1]; Neutral Red in Vero E6 cells, day 3 post-infection): 7 nM
EC90 [2]: 120 nM
CC50 at 3 days [4]: 120 nM
CC50 at 3 days [8]: 10 nM

— patent US20240207299A1, “PYRROLOPYRIMIDINE NUCLEOSIDES FOR TREATING OR PREVENTING A SARS-COV-2 INFECTION” (Chimerix, Inc., priority 2021, published 2024)
